Structures are written as SMILES. Where two headings read alike, the source gives them in different places. Where only a bound is given, the exact number is not on record here.

Series [1] has as its system maximal electroshock seizure (MES) in mice. In words: Maximal electroshock seizure (MES) test, mice, i.p. Particulars: for ED50: MES test; for P.I. (protective index, TD50/ED50) / % protection: MES; for % protection: 100 mg/kg. The format is in vivo, mouse (male Carworth Farms #1). From the text:
The (+) AAP enantiomers obtained by optical resolution of racemic AAPs and the resulting highly orally effective anticonvulsant compositions of this invention are useful in the treatment of convulsive disorders. […] A series of (+) AAP enantiomers and (-) AAP enantiomers of this invention has been evaluated for anticonvulsant activity by the intraperitoneal (i.p.) and by the oral (p.o.) route using two standard seizure models in the mouse and in the rat, the maximal electroshock seizure (MES) test and the subcutaneous pentylenetetrazol (Metrazole) seizure threshold (scMet) test. […] The following Table 2 presents the results of these anticonvulsant tests with respect to several (+) and (-) AAP enantiomeric compounds derived from optical resolution of racemic AAPs of the present invention. This Table 2 identifies the specific compounds tested by their chemical name and provides the test model, the route of administration, the animal species used, and the anticonvulsant activity and toxicity in terms of ED50 and TD50 values, (the median effective and toxic dose respectively), when intraperitoneally administered to mice, and when orally administered to rats. In mice, i.p.: All compounds are emulsified in 0.5% methylcellulose. The solvent has been tested for anticonvulsant and toxic effects and found to introduce no significant bias into the testing of anticonvulsant activity. The compounds are administered intraperitoneally in a volume of 0.01 ml/gm to male Carworth Farms #1 mice weighing about 20 gm. All compounds are tested at least at three dose levels (30, 100 and 300 mg/kg) at 30 minutes and 4 hours after their administration. The Maximal Electroshock Seizure Test (MES): Maximal electroshock seizures are elicited with a 60 Hz alternating current of 50 mA intensity in mice and about 150 mA intensity in rats (5-7 times that necessary to elicit minimal electroshock seizures), delivered for 0.2 sec via corneal electrodes. A drop of 0.9% saline is instilled in the eye prior to application of the electrodes in order to […]. Abolition of the hind limb tonic extension component of the seizure is defined as protection and results are expressed as number of animals protected/number of animals tested. The Subcutaneous Pentylenetetrazol (Metrazole) Seizure Threshold Test (scMet): A 0.5% solution of 85 mg/kg of pentylenetetrazol is administered subcutaneously in the posterior midline 30 minutes or 4 hours after drug administration to the animal. […] Anticonvulsant Quantification in Mice i.p.: The ED50 values are determined in the MES, scMet and rotorod ataxia test. To determine the ED50 values, five logarithmically spaced doses of the test compound are administered to animals (male Carworth Farms #1 mice) in groups of eight, to cover 0-100% protection, and the dose required to protect 50% of the animals (ED50) together with its 95% confidence limits, is determined graphically.
In general terms: Protection in the maximal electroshock model is a classic sign of anticonvulsant action.

For series [2], the system named is neurotoxicity (rotorod ataxia) in mice. In words: Neurotoxicity, rotorod ataxia test, mice, i.p. Set-up: species or system mouse (male Carworth Farms #1). Particulars: mouse, in vivo, ip. How it is done: Neurotoxicity is determined by the rotorod ataxia test in mice and by the positional sense test and gait and stance test in the rat. The following Table 2 presents the results of these anticonvulsant tests with respect to several (+) and (-) AAP enantiomeric compounds derived from optical resolution of racemic AAPs of the present invention. This Table 2 identifies the specific compounds tested by their chemical name and provides the test model, the route of administration, the animal species used, and the anticonvulsant activity and toxicity in terms of ED50 and TD50 values, (the median effective and toxic dose respectively), when intraperitoneally administered to mice, and when orally administered to rats. In mice, i.p.: All compounds are emulsified in 0.5% methylcellulose. The solvent has been tested for anticonvulsant and toxic effects and found to introduce no significant bias into the testing of anticonvulsant activity. The compounds are administered intraperitoneally in a volume of 0.01 ml/gm to male Carworth Farms #1 mice weighing about 20 gm. All compounds are tested at least at three dose levels (30, 100 and 300 mg/kg) at 30 minutes and 4 hours after their administration. Neurotoxicity is evaluated in mice by the rotorod ataxia test. The animal is placed on a wooden rod of 1 and 1/8 diameter rotating at 6 rpm. Normal mice can remain on a rod rotating at this speed indefinitely. […] Anticonvulsant Quantification in Mice i.p.: The ED50 values are determined in the MES, scMet and rotorod ataxia test. To determine the ED50 values, five logarithmically spaced doses of the test compound are administered to animals (male Carworth Farms #1 mice) in groups of eight, to cover 0-100% protection, and the dose required to protect 50% of the animals (ED50) together with its 95% confidence limits, is determined graphically.

The test system of series [3] is maximal electroshock seizure (MES) in rats. In words: Maximal electroshock seizure (MES) test, rats, p.o. Particulars: for % protection (lowest and highest) during 4 hour period: 4 rats per point; for ED50: Rattus norvegicus, po, MES test, read-out: ED50. The format is in vivo, rat (Sprague-Dawley). From the text:
The (+) AAP enantiomers obtained by optical resolution of racemic AAPs and the resulting highly orally effective anticonvulsant compositions of this invention are useful in the treatment of convulsive disorders. […] A series of (+) AAP enantiomers and (-) AAP enantiomers of this invention has been evaluated for anticonvulsant activity by the intraperitoneal (i.p.) and by the oral (p.o.) route using two standard seizure models in the mouse and in the rat, the maximal electroshock seizure (MES) test and the subcutaneous pentylenetetrazol (Metrazole) seizure threshold (scMet) test. […] The following Table 2 presents the results of these anticonvulsant tests with respect to several (+) and (-) AAP enantiomeric compounds derived from optical resolution of racemic AAPs of the present invention. This Table 2 identifies the specific compounds tested by their chemical name and provides the test model, the route of administration, the animal species used, and the anticonvulsant activity and toxicity in terms of ED50 and TD50 values, (the median effective and toxic dose respectively), when intraperitoneally administered to mice, and when orally administered to rats. The Maximal Electroshock Seizure Test (MES): Maximal electroshock seizures are elicited with a 60 Hz alternating current of 50 mA intensity in mice and about 150 mA intensity in rats (5-7 times that necessary to elicit minimal electroshock seizures), delivered for 0.2 sec via corneal electrodes. A drop of 0.9% saline is instilled in the eye prior to application of the electrodes in order to […]. Abolition of the hind limb tonic extension component of the seizure is defined as protection and results are expressed as number of animals protected/number of animals tested. The Subcutaneous Pentylenetetrazol (Metrazole) Seizure Threshold Test (scMet): A 0.5% solution of 85 mg/kg of pentylenetetrazol is administered subcutaneously in the posterior midline 30 minutes or 4 hours after drug administration to the animal. […] This species will be the subject of the complete anticonvulsant quantification test evaluation as described above, but after oral (gavage) administration of the candidate compound.

Series [4] in a line: Neurological deficit, positional sense test and gait and stance test, rats, p.o. Particulars: rat, in vivo, po. The arrangement: species or system rat (Sprague-Dawley). How it is done: Neurotoxicity is determined by the rotorod ataxia test in mice and by the positional sense test and gait and stance test in the rat. The following Table 2 presents the results of these anticonvulsant tests with respect to several (+) and (-) AAP enantiomeric compounds derived from optical resolution of racemic AAPs of the present invention. This Table 2 identifies the specific compounds tested by their chemical name and provides the test model, the route of administration, the animal species used, and the anticonvulsant activity and toxicity in terms of ED50 and TD50 values, (the median effective and toxic dose respectively), when intraperitoneally administered to mice, and when orally administered to rats. […] This species will be the subject of the complete anticonvulsant quantification test evaluation as described above, but after oral (gavage) administration of the candidate compound. […] Neurological deficit in rats is examined by the positional sense test and gait and stance test. […] Inability to do so rapidly indicates a neurologic deficit. In the gait and stance test, a neurologic deficit is indicated by a circular or a zigzag gait, ataxia, abnormal spread of the legs, abnormal body posture, tremor, hyperactivity, lack of exploratory behavior, somnolence, stupor, or catalepsy.

Where [5] appears, read: rat, p.o. for racemic AAPs, MES.

`CCC(Nc1ccc(Cl)c(Cl)c1)c1ccncc1` (single isomer, unassigned; (-)) [Compound 10, (-) N-(3,4-Dichlorophenyl)-1-(4-pyridyl)propylamine]: in series [1] (listed as (5) (-) Enantiomer), the ED50 (commonly the midpoint of the dose-response relation) is given as 117.3 mg/kg and the “P.I. (protective index, TD50/ED50)” value stood at 2.3. In series [2], the TD50 worked out at 275.2 mg/kg. In addition, the “% protection (lowest and highest) during 4 hour period” value in series [3] (rat, p.o., 30 mg/kg, 5 time points 0.25-4 hours, MES, listed as (5) (-) Enantiomer) was 25-100%.

On to `CC(Nc1cccc(Cl)c1)c1ccncc1` (single isomer, unassigned; (-)) [Compound 4, (-) N-(3-Chlorophenyl)-1-(4-pyridyl)ethylamine], for which the “% protection” value in series [1] (listed as (2) (-) Enantiomer) is 33%. Besides, in series [3] (p.o.), the ED50 worked out at 29.6 mg/kg. Besides, the “% protection (lowest and highest) during 4 hour period” value in series [3] (rat, p.o., 30 mg/kg, 5 time points 0.25-4 hours, MES, listed as (2) (-) Enantiomer) is on record as 50-100%. Moreover, the “P.I. (protective index, TD50/ED50)” value in series [3] (rat, p.o., MES) is recorded as more than 2.1. The molecule further had a TD50 in series [4] of more than 62.5 mg/kg.

As for `CC(Nc1ccc(Br)cc1)c1ccncc1` (single isomer, unassigned; (-)) [Compound 12, (-) N-(4-Bromophenyl)-1-(4-pyridyl)ethylamine], in series [1] (listed as (6) (-) Enantiomer), the ED50 is reported as 85.5 mg/kg and the “P.I. (protective index, TD50/ED50)” value came to 3.4. This molecule also yielded a TD50 in series [2] of 287.6 mg/kg. In addition, in series [3] (rat, p.o., 30 mg/kg, 5 time points 0.25-4 hours, MES), the “% protection (lowest and highest) during 4 hour period” value is on record as 25-75%.

For the molecule `CC(Nc1cccc(Cl)c1)c1ccncc1` (single isomer, unassigned; (+)) [Compound 3, (+) N-(3-Chlorophenyl)-1-(4-pyridyl)ethylamine], the “% protection” value in series [1] (listed as (2) (+) Enantiomer) is reported as 67%. In addition, the “% protection (lowest and highest) during 4 hour period” value in series [3] (rat, p.o., 30 mg/kg, 5 time points 0.25-4 hours, MES, listed as (2) (+) Enantiomer, 30 mg/kg) is on record as 25-75%.

On to `CC(Nc1cccc(Cl)c1)c1ccncc1` (racemic) [N-(3-Chlorophenyl)-1-(4-pyridyl)ethylamine, reference compound], for which the ED50 in series [3] (p.o. for racemic AAPs) is 34 mg/kg. Also, the “P.I. (protective index, TD50/ED50)” value in series [3] (setting [5]) is more than 14.7. In addition, in series [4], the TD50 is more than 500 mg/kg.

In the case of `CC(Nc1ccc(Cl)c(Cl)c1)c1ccncc1` (single isomer, unassigned; (-)) [Compound 6, (-) N-(3,4-Dichlorophenyl)-1-(4-pyridyl)ethylamine], in series [1] (listed as (3) (-) Enantiomer), the ED50 amounted to 125.4 mg/kg and the “P.I. (protective index, TD50/ED50)” value is reported as 2.2. The same molecule had a TD50 in series [2] of 279.2 mg/kg. For the same molecule, the “% protection (lowest and highest) during 4 hour period” value in series [3] (rat, p.o., 30 mg/kg, 5 time points 0.25-4 hours, MES, listed as (3) (-) Enantiomer) is 25-75%.

As to `CC(Nc1ccc(Br)cc1)c1ccncc1` (racemic) [N-(4-Bromophenyl)-1-(4-pyridyl)ethylamine, reference compound], the ED50 in series [3] (p.o. for racemic AAPs) worked out at 20.9 mg/kg. Further, in series [3] (setting [5]), the “P.I. (protective index, TD50/ED50)” value was more than 23.9. The same molecule displayed a TD50 in series [4] of more than 500 mg/kg.

Regarding `CCC(Nc1ccc(Cl)cc1)c1ccncc1` (single isomer, unassigned; (-)) [Compound 8, (-) N-(4-Chlorophenyl)-1-(4-pyridyl)propylamine], in series [1] (listed as (4) (-) Enantiomer), the ED50 amounted to 118.9 mg/kg and the “P.I. (protective index, TD50/ED50)” value is listed as 2.3. In series [2], this molecule gave a TD50 of 269.4 mg/kg. Moreover, in series [3] (rat, p.o., 30 mg/kg, 5 time points 0.25-4 hours, MES, listed as (4) (-) Enantiomer), the “% protection (lowest and highest) during 4 hour period” value is 25-100%.

For `CC(Nc1ccc(Cl)c(Cl)c1)c1ccncc1` (racemic) [N-(3,4-Dichlorophenyl)-1-(4-pyridyl)ethylamine, reference compound], the “P.I. (protective index, TD50/ED50)” value in series [3] (setting [5]) is more than 16.8. In series [4], this molecule returned a TD50 of more than 500 mg/kg.

For the molecule `CCC(Nc1ccc(Cl)cc1)c1ccncc1` (racemic) [N-(4-Chlorophenyl)-1-(4-pyridyl)propylamine, reference compound], the ED50 in series [3] (p.o. for racemic AAPs) worked out at 25 mg/kg. Also, the “P.I. (protective index, TD50/ED50)” value in series [3] (setting [5]) was more than 20. The TD50 in series [4] was more than 500 mg/kg.

Take `CCC(Nc1ccc(Cl)c(Cl)c1)c1ccncc1` (racemic) [N-(3,4-Dichlorophenyl)-1-(4-pyridyl)propylamine, reference compound]: the “% protection (lowest and highest) during a 4-hour period” value in series [3] (rat, p.o. for racemic AAPs, 30 mg/kg, 5 time points 0.25-4 hours, MES) was 0-50%.

With `CC(Nc1ccc(Cl)cc1)c1ccncc1` (racemic) [N-(4-Chlorophenyl)-1-(4-pyridyl)ethylamine, reference compound], in series [3] (p.o. for racemic AAPs), the ED50 was 22.9 mg/kg. In addition, the “P.I. (protective index, TD50/ED50)” value in series [3] (setting [5]) was more than 20.5. Further, in series [4], the TD50 was more than 470 mg/kg.

The record behind these values is US6083964A, “Optical resolution of racemic aminoalkylpyridine anticonvulsants and (+) aminoalkylpyridine enantiomers as highly potent orally effective anticonvulsant drugs and excitatory amino acid antagonists” (K and K Biosciences, Inc., priority 1999, dated 2000).
